# Results: patent US6043283A, “Tyramine compounds and their neuronal effects” (priority 1997, dated 2000)
# Entries after “also recorded” stand apart in the source; their conditions may differ. Where a name gives a salt, the structure may show the parent alone. Read-outs that look alike come from different tables or passages of the source.
# What was measured:
# NMDA receptor = experiment: whole cell current elicited by NMDA in Xenopus oocytes injected with NMDA R1 and R2 subunit cRNAs; format: cell-based; conditions: for effect on current elicited by NMDA: FIG. 34
# From the text: FIG. 34 is a graph shorting the % maximal current peak elicited by NMDA, octopamine and tyramine compounds in the presence of a given NMDA concentration. […].
# The precise mechanism of NTox that leads to the destruction of neurons is only partially characterized. Based upon extensive testing with receptor antagonists, it has been discovered that two classes of neurotransmitter receptors are involved--the n-methyl D-aspartate (NMDA) class of […] receptors and the Muscarinic (M receptors) class of cholinergic receptors. […] […]. Further study to determine if tyramine compounds act upon the NMDA receptor itself involved expression of the NMDA receptor complex in Xenopus oocytes and measurement of ionic fluxes across the oocyte membrane that are elicited by NMDA. […] […]. […] Thus, tyramine compounds appear to have several actions, one of which is upon the NMDA receptor.
# [1] = tested on: NTox released by Aβ1-42-stimulated microglia (neuron killing); experiment: cells; format: cell-based, rat; conditions: for neuroprotective activity (structure/function): Example 14
# From the text: . Briefly, hippocampal cells obtained from embryonic stage 18 rat fetuses were dispersed mechanically in the presence of 0.125% trypsin and plated onto poly-L-lysine coated glass coverslips in 24 well plates at 250,000 cells per well (resulting in adhering cell densities of about 1250 cells per mm^2) in chemically-defined N2 culture media containing 5% fetal bovine serum. Gradual reduction of serum began on day 10 in vitro with daily 1:1 volume replacements with chemically-defined media, until a final concentration of 0.6% serum was achieved. […]; see FIG. 18). In order to eliminate microglia, cultures were exposed to saporin (sap; a ribosome-inactivating protein; Davis and Wiley, 1989) coupled to acetylated LDL (ac-LDL) at a concentration of 10 μg/ml for 12 hours. […] Cultures depleted of microglia were then exposed to test substances in the presence or absence of exogenous microglia (100,000 cells per culture). […]. Controls included cultures without saporin-treatment, cultures without test substances, and cultures with test substances but lacking microglia.
# (§1) On day 14 of culture, immediately following saporin treatment, test substances were added to the hippocampal cultures. Synthetic peptide were supplied as 1 mM stock solutions in 0.1 M phosphate buffered saline, pH 7.2, stored for at least 1 week at 4° C. before use. After 72 hours incubation, the cultures were fixed in 4% paraformaldehyde at room temperature for 18 hours and immuno-stained by overnight incubation with a mixture of anti-neurofilament antibodies (NF; SMI-311, 1:600; Stemberger Monoclonals, Inc.) plus anti-MAP-2 (Boehringer Mannheim, 184959; 1:600) at 4° C. in the presence of 2% horse serum and 0.3% triton X-100 to delineate both neuronal cell bodies and neurites. Astroglia were visualized using sheep anti-glial fibrillary acidic protein (GFAP, Sigma) as described by Giulian et al., 1989. Finally, to label all cell nuclei, the coverslips were exposed to 0.01% bisbenzimide (Hoechst 33258; Sigma) in PBS, pH 6.9, and rinsed in distilled water and mounted in glycerin. Immuno-labeled cells per field and nuclei per field were scored at 200X magnification using fluorescence microscopy. Data were expressed as % mean survival expressed in terms of parallel untreated control cultures after scoring at least 20 randomly selected fields for each of 3 coverslips.
# The procedures described above and by Giulian et al, 1996, provided for the identification of tyramine compounds as therapeutic agents for neurodegenerative diseases or disorders including, for example, Alzheimer's disease. Cells from the brain of fetal rats were grown in tissue cultures. Microglial populations within the cultures were controlled following the method described in Example 5 above. Known amounts of Aβ peptides coupled to microspheres were added to the culture. The Aβ spheres stimulated the microglia to release NTox, which in turn destroyed the neurons. The neurons in the cultures were monitored for survival by immuno-staining.
# Generally, drug assays involve the addition of known concentrations of a test agent over a range of concentrations. After 72 hours, the experiment is stopped and the neurons are identified by immuno-staining. The data is expressed as % neuronal survival […]. Dose response curves are then used to estimate Effective Dose50 % (ED50) of neuroprotective agents. […].
# In this experiment, about 65% of the neurons were destroyed by the Aβ-stimulated microglia. […] Other tyramine compounds, including tyrosine esters, were neuroprotective (FIG. 30).
# Following the methods described herein, numerous compounds were examined to determine their neuroprotective activity. […]
# rat microglia = experiment: binding of Aβ-coupled microspheres to microglia; conditions: 4 hours at 37° C. (72 h in FIG. 23)
# [2] = format: physicochemical; conditions: chemically defined culture media, 37° C.; Table 2
# From the text: Solubility of peptides is described for chemicallydefined culture media a […]
# [3] = tested on: rat microglia / hippocampal neurons; conditions: rat microglia, mostly 1 μmole/l
# hippocampal neurons = format: cell-based, rat; conditions: absence of microglia
# From the text: (§2) Briefly, hippocampal cells obtained from embryonic stage 18 rat fetuses were dispersed mechanically in the presence of 0.125% trypsin and plated onto poly-L-lysine coated glass coverslips in 24 well plates at 250,000 cells per well (resulting in adhering cell densities of about 1250 cells per mm^2) in chemically-defined N2 culture media containing 5% fetal bovine serum. Gradual reduction of serum began on day 10 in vitro with daily 1:1 volume replacements with chemically-defined media, until a final concentration of 0.6% serum was achieved. […] In order to eliminate microglia, cultures were exposed to saporin (sap; a ribosome-inactivating protein; Davis and Wiley, 1989) coupled to acetylated LDL (ac-LDL) at a concentration of 10 μg/ml for 12 hours. […] Cultures depleted of microglia were then exposed to test substances in the presence or absence of exogenous microglia (100,000 cells per culture). […] Controls included cultures without saporin-treatment, cultures without test substances, and cultures with test substances but lacking microglia.
# as §1
# [4] = tested on: Aβ1-42-stimulated microglia; format: cell-based, rat
# From the text: as §2, §1
# [5] = tested on: plaque-stimulated microglia; experiment: blocking of plaque-induced microglial neurotoxicity; format: cell-based, rat; conditions: FIG. 16C
# [6] = tested on: human microglia stimulated with S5; format: cell-based;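 further: drugs applied at 10 µM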
# microglia = experiment: inhibition of SpheresAβ1-42 binding to microglia; set-up: species or system rat; conditions: 10 μmoles/l, 4 hours, 37° C.
# Method: Spheresmal-BSA (which bind to scavenger receptors) or SpheresAβ1-42 were incubated with microglia for 4 hours following pre-treatment of cells with trypsin (5000 units/ml at 37° C. for 60 min followed by inactivation with soybean trypsin inhibitor), with heparinase (heparin lyase EC 4.2.2.7; two consecutive treatments each of 0.01 units/ml for 60 min), or with chondroitinase ABC (chondroitin ABC lyase EC 4.3.3.4; two consecutive treatments each of 0.02 units/ml for 60 min). […] Microglia mixed with hippocampal neurons were treated with combinations of β-D-xyloside (1 mm), heparinase (0.02 units/ml), or chondroitinase (0.04 units/ml) and then exposed to plaques.
# Each well then received 250,000 SpheresAβ1-42 or Spheresmal-BSA in the presence or absence of Aβ peptides, GAGs, or scavenger receptor ligands. Binding assays were carried out at 37° C. for 4 hours after which coverslips were dipped 10 times in phosphate buffer and fixed with 4% buffered paraformaldehyde. Microsphere adherence to cells was scored at 200 magnification with phase/fluorescence microscopy. Data, expressed as % inhibition of sphere binding, was calculated from total number of spheres per field noted for control cultures receiving spheres only. Values are based upon at least 3 coverslips from 2 independent experiments. […] Washed spheres were resuspended in 0.2 M borate buffer (pH 8.5) in the presence of 300 μg Aβ or 400 μg BSA in 6% DMSO. After overnight mixing at room temperature, the spheres were washed extensively and blocked by 1 M glycine (pH 8.0) for 30 minutes.
# human microglia = experiment: induction of neuron-killing human microglia; format: cell-based; conditions: 1 μmole/liter synthetic peptides
# NTox = experiment: protection of neurons against isolated NTox applied directly; format: cell-based; conditions: isolated NTox; FIGS. 13, 32
# From the text: FIG. 32 is a graph showing the specificity of tyramine compounds to NTox. […].
# Initial studies to characterize the neuroprotective effect of tyramine compounds employed microglia-neuron co-culture assays in the presence of Aβ or isolated senile plaques. Inhibition of neuron killing in […]--inhibition of microglial activation by Aβ or plaques; inhibition of NTox production and release by microglia; or inhibition of action of NTox upon neurons. […] Effective doses in the low nmolar range show the tyramine compounds to be very potent agents compared with low μmolar range of other neuroprotective drugs under development for neurological disorders.
# [7] = tested on: reactive microglia in rat neocortex; experiment: brain inflammatory response after infusion into neocortex of adult rat; format: in vivo; conditions: 0.5 nmoles Aβ1-42, co-infusion of 1.0 nmole peptide; 5 days
molecule,measurement,setting,value
NCC(O)c1ccc(O)cc1 (centres unmarked) [octopamine],effect on current elicited by NMDA,NMDA receptor,does not alter the current measured
same,effect on current elicited by NMDA,NMDA receptor; listed as Octopamine,no effect
same,neuroprotective activity (structure/function),[1],little or no neuroprotective activity
"Aβ17-42: Aβ peptide residues 17-42 (LVFFAEDVGSNKGAIIGLMVGGVVIA; Amyloid-beta protein 42; UniProt P05067 688-713, looked up, fragment)",binding of peptide-coupled microspheres to microglia,rat microglia,neither binds to microglia nor elicits toxicity
same,Solubility,[2],very insoluble
Aβ1-43: small Aβ peptide (as printed),induction of neurotoxic microglia / neuron killing,[3],did not produce neurotoxicity
same,direct neurotoxicity without microglia,hippocampal neurons,did not produce neurotoxicity
"Aβ13-20: Aβ peptide residues 13-20 (HHQKLVFF; Amyloid-beta protein 42; UniProt P05067 684-691, looked up, fragment)",IC50,"[4]; read-out: ED50 (blocking of Aβ1-42 induced neurotoxicity), FIG. 16B",250 nM
same,blocking of plaque-induced microglial toxicity by peptides,[5],blocked plaque-induced toxicity in vitro
"CC(=N)NCCC[C@H](N)C(=O)O [L-NIO, L-N-5-(1-imino-ethyl)-ornithine hydrochloride]","drug blockade of neuron killing, human microglia",[6]; hydrochloride,no reduction of microglia-mediated neuron killing; also recorded: No protective effects were observed
same,"drug blockade of neuron killing, rat microglia",[4]; hydrochloride,no reduction of microglia-mediated neuron killing; also recorded: No protective effects were observed
"rodent Aβ1-40: rodent Aβ1-40 (5Arg-Gly, 10Tyr-Phe, 13His-Arg) (DAEFGHDSGFEVRHQKLVFFAEDVGSNKGAIIGLMVGGVV; Amyloid-beta protein 40; UniProt P12023 672-711, looked up)",binding of peptide-coupled microspheres to microglia,rat microglia,little cell binding
same,inhibition of SpheresAβ1-42 binding by peptides,microglia,unable to block
same,induction of neurotoxic microglia / neuron killing,[3],did not activate microglia
same,induction of neurotoxic microglia / neuron killing,[3]; listed as Aβ1-40rodent,neither
same,induction of neurotoxic microglia / neuron killing,[3]; listed as Rodent Aβ1-40,did not activate microglia
same,induction of neurotoxic microglia / neuron killing,[3]; listed as rodent form of Aβ1-40,inactive
same,induction of neurotoxic human microglia,human microglia,inactive
CC(C)(C)OC(=O)[C@@H](N)Cc1ccc(O)cc1 [tyrosine t-butyl ester],effect on NMDA-stimulated voltage change across oocyte membrane,NMDA receptor; 300 μM,blocked
same,effect on current elicited by NMDA,NMDA receptor,inhibition of NMDA
same,neuroprotective effect,[1]; Aβ1-42-stimulated microglia,most potent neuroprotectant tested
same,neuroprotective activity (structure/function),[1],enhance neuroprotective effects
same,EC50,"[1]; Rattus norvegicus, Aβ-stimulated microglia, 72 h, FIG. 31, read-out: ED50 (neuroprotection)",2 nM
same,inhibition of killing action of NTox applied to neurons,NTox,killing action of NTox is inhibited
catalase,"drug blockade of neuron killing, human microglia",[6],no reduction of microglia-mediated neuron killing; also recorded: did not block microglial killing of neurons
same,"drug blockade of neuron killing, rat microglia",[4],no reduction of microglia-mediated neuron killing; also recorded: did not block microglial killing of neurons
vitamin E,"drug blockade of neuron killing, human microglia",[6],no reduction of microglia-mediated neuron killing; also recorded: did not block microglial killing of neurons
same,"drug blockade of neuron killing, rat microglia",[4],no reduction of microglia-mediated neuron killing; also recorded: did not block microglial killing of neurons
NC(CCCCCP(=O)(O)O)C(=O)O (centres unmarked) [AP7],"drug blockade of neuron killing, human microglia",[6],blocked neuron death
same,"drug blockade of neuron killing, rat microglia",[4],prevented neuronal loss; also recorded: blocked neuron death
N[C@@H](Cc1ccc(O)cc1)C(=O)OCc1ccccc1 [tyrosine benzyl ester],effect on current elicited by NMDA,NMDA receptor,inhibition of NMDA
same,neuroprotective activity (structure/function),[1],enhance neuroprotective effects
"Aβ1-5: Aβ peptide residues 1-5 (DAEFR; Amyloid-beta protein 42; UniProt P05067 672-676, looked up, fragment)",binding of peptide-coupled microspheres to microglia,rat microglia,did not
same,inhibition of SpheresAβ1-42 binding by peptides,microglia,did not
same,blocking of Aβ1-42 induced microglial neurotoxicity by peptides,"[4]; 10 μmoles/liter peptide, 1 μmole/liter Aβ1-42",did not
same,local brain inflammatory response,[7],did not alter inflammation
N[C@@H](CCC(=O)N[C@@H](CS)C(=O)NCC(=O)O)C(=O)O [glutathione],"drug blockade of neuron killing, human microglia",[6],no reduction of microglia-mediated neuron killing; also recorded: did not block microglial killing of neurons
same,"drug blockade of neuron killing, rat microglia",[4],no reduction of microglia-mediated neuron killing; also recorded: did not block microglial killing of neurons
